Source: patent US8530447B2, “Dietary fiber formulation and method of administration” (Nestec S.A., priority 2005, dated 2013)

System: human fecal bacteria
Assay: Measure of prebiotic effect (MPE), stirred pH-controlled batch culture fermentations
Format: cell-based
Method: Quantitative in vitro methods are known for measuring the prebiotic effect of a fiber. The measurable effect a fiber has on the growth of major bacterial species in the human gut, bifidobacteria and lactobacilli in particular, is the measure of the prebiotic effect (MPE). MPE has three components:
1. the rate fiber is fermented;
2. the changes in bacterial populations; and
3. the production of SCFA.
The rate of fiber fermentation is determined by the change in the concentration of fiber over time. Thus, the quicker the fiber concentration decreases, the faster the rate of fermentation by bacteria. Changes in bacterial populations are measured by the “prebiotic index,” which considers increases in the growth rate of bifidobacteria, lactobacilli, and eubacteria as positive effects and increases in bacteriodes, clostridia, Escherichia coli, and sulphate-reducing bacteria as negative effects. Different fibers support the growth of distinct bacteria and therefore yield varying patterns and/or amounts of SCFA. However, the prebiotic effect is usually associated with lactic acid-producing bacteria, bifidobacteria and lactobacilli being principle lactic acid producers. Therefore, the ratio of lactic acid production relative to the total SCFA production provides a qualitative as well as quantitative assessment of the fibers being examined. The MPE provides a quantitative analysis of the prebiotic potential of a fiber and provides further support for the benefits of specific fibers. Therefore, the MPE is a useful tool in identifying the types and specific amounts of fiber that promote optimal digestive health and prevent or treat intestinal diseases.
Each value is based on stirred, pH-controlled batch culture fermentations using 0.25%, 0.5%, and 1.0% (w/v) substrates in the presence of human fecal bacteria.

For OC[C@H]1O[C@@](CO)(O[C@H]2O[C@H](CO)[C@@H](O)[C@H](O)[C@H]2O)[C@@H](O)[C@@H]1O [Sucrose], the MPE (0.25% (w/v) substrate) was −0.3, the MPE (0.5% (w/v) substrate) was −0.3 and the MPE (1% (w/v) substrate) was −0.6.
